Measured values from BigSolDB 2.1.

CC(C)(C)c1ccc(-c2nnc(-c3ccc(-c4ccccc4)cc3)o2)cc1
solubility (mole fraction)
Settings | 273.15 K | 283.15 K | 293.15 K | 303.15 K | 313.15 K | 323.15 K | 333.15 K
in DMSO | – | – | 0.00363 | 0.00603 | 0.00886 | 0.0133 | 0.0187
in NMP | – | 0.0542 | 0.0662 | 0.0767 | 0.0954 | 0.115 | –
in THF | – | 0.0524 | 0.0589 | 0.065 | 0.0725 | 0.0817 | –
in acetonitrile | – | 0.00143 | 0.00234 | 0.00313 | 0.00464 | 0.00615 | –
in chlorobenzene | – | 0.0587 | 0.0709 | 0.0834 | 0.0952 | 0.112 | –
in dichloromethane | 0.0818 | 0.0911 | 0.104 | 0.112 | – | – | –
in ethanol | – | 0.00062 | 0.000963 | 0.00148 | 0.00222 | 0.00315 | –
in ethyl acetate | – | 0.0114 | 0.0153 | 0.0223 | 0.03 | 0.0392 | –
in isopropanol | – | 0.000711 | 0.0012 | 0.00174 | 0.00274 | 0.00324 | –
in methanol | – | 0.000412 | 0.000703 | 0.00105 | 0.00185 | 0.00281 | –
in n-hexane | – | 0.000411 | 0.000596 | 0.000996 | 0.00164 | 0.00235 | –
in toluene | – | 0.0303 | 0.04 | 0.0585 | 0.0834 | 0.109 | –
